The text below walks through data of the supplement of paper PMC11208160.

The data set in a line: recombinant UMI read abundance after kanamycin selection (control-corrected) (log10(CPM+1)); higher = more efficient recombination; extreme values may be limits of the assay; sequences stand for … in AGTGCAGAGAAAATCGGCCAGTTTTCTCTGCCTGCAGTCCGCATGCCGTGGGACCCCTTGGGTTCTAACCTGTTGCCTAGATTTATGCAGCGGACTGCCTTTCTCCCAAAGTGATAAACCGG…AGGTTGGTTTCACT; site = the 11-nt donor. The essentials:
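Reported values are log10(CPM+1) from a pooled Escherichia coli screen of donor and donor-binding-loop pairs for the IS621 bridge recombinase. Selection used IPTG (0.07 mM) plus kanamycin, against unselected plating, each in two replicates. Recombinant UMIs were amplified across the donor–target junction, sequenced, converted to CPM, averaged over replicates and scaled by control-derived factors.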
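Note: IS621 bridge recombinase in Escherichia coli cells against a fixed T5 target plasmid.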

Regarding “GACCCTACATGGACCGGTTTTCCCGGTAATCCGTATTTGAA (site GACCCTACTTT)”, the “recombinant UMI read abundance (log10)” value came out at 0.324.
The same measure for “GACCGACCATGGACCGGTTTTCCCGGTAATCCGTATTTGCG (site GACCGACCTCG)”: 0.00858; for “GACCGTCCATGGACCGGTTTTCCCGGTAATCCGTATTTGAC (site GACCGTCCTGT)”: 0; for “GACCTATCATGGACCGGTTTTCCCGGTAATCCGTATTTGGA (site GACCTATCTTC)”: 0.981.
On to “GACCTTCCATGGACCGGTTTTCCCGGTAATCCGTATTTGGT (site GACCTTCCTAC)”, for which the “recombinant UMI read abundance (log10)” value is 0.0209.
The same measure for “GACGCCGCATGGACCGGTTTTCCCGGTAATCCGTATTTGGT (site GACGCCGCTAC)”: 0.736; for “GACGTAACATGGACCGGTTTTCCCGGTAATCCGTATTTGGC (site GACGTAACTGC)”: 1.72; for “GACTAGCCATGGACCGGTTTTCCCGGTAATCCGTATTTGAA (site GACTAGCCTTT)”: 0.0158.
Turning to “GACTCATCATGGACCGGTTTTCCCGGTAATCCGTATTTGCC (site GACTCATCTGG)”, the “recombinant UMI read abundance (log10)” value was determined as 2.65.
To “GACTTGGCATGGACCGGTTTTCCCGGTAATCCGTATTTGAA (site GACTTGGCTTT)” belongs 0.93.
To “GAGAAGCCATGGACCGGTTTTCCCGGTAATCCGTATTTGGG (site GAGAAGCCTCC)” belongs 0.0155.
“GAGAAGCCATGGACCGGTTTTCCCGGTAATCCGTATTTGGG (site GCGAAGCCTCC)”: the “recombinant UMI read abundance (log10)” value was found to be 0.0122.
To “GAGAAGCCATGGACCGGTTTTCCCGGTAATCCGTATTTGGG (site GGGAAGCCTCC)” belongs 0; to “GAGAAGCCATGGACCGGTTTTCCCGGTAATCCGTATTTGGG (site GTGAAGCCTCC)”, 0.0251.
Turning to “GAGAATCCATGGACCGGTTTTCCCGGTAATCCGTATTTGTT (site CGGAATCCTAA)”, the “recombinant UMI read abundance (log10)” value was 0.
To “GAGAATCCATGGACCGGTTTTCCCGGTAATCCGTATTTGTT (site GAGAATCCTAA)” belongs 0.
To “GAGACGTCATGGACCGGTTTTCCCGGTAATCCGTATTTGCC (site GAGACGTCTGG)” belongs 2.04; to “GAGCACGCATGGACCGGTTTTCCCGGTAATCCGTATTTGGG (site AAGCACGCTCC)”, 0.0191; to “GAGCACGCATGGACCGGTTTTCCCGGTAATCCGTATTTGGG (site CAGCACGCTCC)”, 0.0292.
As for “GAGCACGCATGGACCGGTTTTCCCGGTAATCCGTATTTGGG (site GAGCACGCTCC)”, the “recombinant UMI read abundance (log10)” value is 0.468.
The same measure for “GAGCACGCATGGACCGGTTTTCCCGGTAATCCGTATTTGGG (site TAGCACGCTCC)”: 0.517; for “GAGCACTCATGGACCGGTTTTCCCGGTAATCCGTATTTGCG (site GAGCACTCTCG)”: 3.08.
The same measure for “GAGCCCACATGGACCGGTTTTCCCGGTAATCCGTATTTGAA (site GAGCCCACTTT)”: 1.73.
The same measure for “GAGCCCTCATGGACCGGTTTTCCCGGTAATCCGTATTTGTC (site GAGCCCTCTGA)”: 3.73; for “GAGCCGACATGGACCGGTTTTCCCGGTAATCCGTATTTGGC (site GAGCCGACTGC)”: 0.
Regarding “GAGCGCACATGGACCGGTTTTCCCGGTAATCCGTATTTGAT (site GAGCACACTAT)”, the “recombinant UMI read abundance (log10)” value was determined as 1.07.
The same measure for “GAGCGCACATGGACCGGTTTTCCCGGTAATCCGTATTTGAT (site GAGCCCACTAT)”: 0.285; for “GAGCGCACATGGACCGGTTTTCCCGGTAATCCGTATTTGAT (site GAGCGCACTAT)”: 1.73.
As for “GAGCGCACATGGACCGGTTTTCCCGGTAATCCGTATTTGAT (site GAGCTCACTAT)”, the “recombinant UMI read abundance (log10)” value amounted to 0.111.
For the sequence “GAGCGTCCATGGACCGGTTTTCCCGGTAATCCGTATTTGGG (site GAGCGTCCTCC)”, the “recombinant UMI read abundance (log10)” value was 0.0151.
The same measure for “GAGCGTTCATGGACCGGTTTTCCCGGTAATCCGTATTTGAA (site GAGCGTTCTTT)”: 2.83.
To “GAGCTCACATGGACCGGTTTTCCCGGTAATCCGTATTTGAT (site AAGCTCACTAT)” belongs 1.48; to “GAGCTCACATGGACCGGTTTTCCCGGTAATCCGTATTTGAT (site CAGCTCACTAT)”, 0.963.
Consider “GAGCTCACATGGACCGGTTTTCCCGGTAATCCGTATTTGAT (site GAACTCACTAT)”, for which the “recombinant UMI read abundance (log10)” value stood at 0.9.
For the sequence “GAGCTCACATGGACCGGTTTTCCCGGTAATCCGTATTTGAT (site GACCTCACTAT)”, the “recombinant UMI read abundance (log10)” value was 0.584.
The same measure for “GAGCTCACATGGACCGGTTTTCCCGGTAATCCGTATTTGAT (site GAGATCACTAT)”: 0.00858; for “GAGCTCACATGGACCGGTTTTCCCGGTAATCCGTATTTGAT (site GAGCACACTAT)”: 0.159; for “GAGCTCACATGGACCGGTTTTCCCGGTAATCCGTATTTGAT (site GAGCCCACTAT)”: 0.905.
Take “GAGCTCACATGGACCGGTTTTCCCGGTAATCCGTATTTGAT (site GAGCGCACTAT)”: the “recombinant UMI read abundance (log10)” value was found to be 0.
For the sequence “GAGCTCACATGGACCGGTTTTCCCGGTAATCCGTATTTGAT (site GAGCTAACTAT)”, the “recombinant UMI read abundance (log10)” value was 0.
As to “GAGCTCACATGGACCGGTTTTCCCGGTAATCCGTATTTGAT (site GAGCTCACTAA)”, the “recombinant UMI read abundance (log10)” value was determined as 0.00273.
For “GAGCTCACATGGACCGGTTTTCCCGGTAATCCGTATTTGAT (site GAGCTCACTAC)”, the “recombinant UMI read abundance (log10)” value stood at 0.
For “GAGCTCACATGGACCGGTTTTCCCGGTAATCCGTATTTGAT (site GAGCTCACTAG)”, the “recombinant UMI read abundance (log10)” value amounted to 0.209.
To “GAGCTCACATGGACCGGTTTTCCCGGTAATCCGTATTTGAT (site GAGCTCACTAT)” belongs 2.18; to “GAGCTCACATGGACCGGTTTTCCCGGTAATCCGTATTTGAT (site GAGCTCACTCT)”, 0.206.
The same measure for “GAGCTCACATGGACCGGTTTTCCCGGTAATCCGTATTTGAT (site GAGCTCACTGT)”: 0.768.
“GAGCTCACATGGACCGGTTTTCCCGGTAATCCGTATTTGAT (site GAGCTCACTTT)”: the “recombinant UMI read abundance (log10)” value was 0.125.
The same measure for “GAGCTCACATGGACCGGTTTTCCCGGTAATCCGTATTTGAT (site GAGCTCCCTAT)”: 0.00734; for “GAGCTCACATGGACCGGTTTTCCCGGTAATCCGTATTTGAT (site GAGCTCGCTAT)”: 0.318.
For the sequence “GAGCTCACATGGACCGGTTTTCCCGGTAATCCGTATTTGAT (site GAGCTCTCTAT)”, the “recombinant UMI read abundance (log10)” value stood at 0.783.
In the case of “GAGCTCACATGGACCGGTTTTCCCGGTAATCCGTATTTGAT (site GAGCTGACTAT)”, the “recombinant UMI read abundance (log10)” value stood at 0.0158.
The same measure for “GAGCTCACATGGACCGGTTTTCCCGGTAATCCGTATTTGAT (site GAGCTTACTAT)”: 0.342; for “GAGCTCACATGGACCGGTTTTCCCGGTAATCCGTATTTGAT (site GAGGTCACTAT)”: 0.0104; for “GAGCTCACATGGACCGGTTTTCCCGGTAATCCGTATTTGAT (site GAGTTCACTAT)”: 0.209.
To “GAGCTCACATGGACCGGTTTTCCCGGTAATCCGTATTTGAT (site GATCTCACTAT)” belongs 0.0468; to “GAGCTCACATGGACCGGTTTTCCCGGTAATCCGTATTTGAT (site GCGCTCACTAT)”, 0.011; to “GAGCTCACATGGACCGGTTTTCCCGGTAATCCGTATTTGAT (site GGGCTCACTAT)”, 0.394.
The same measure for “GAGCTCACATGGACCGGTTTTCCCGGTAATCCGTATTTGAT (site GTGCTCACTAT)”: 0.296.
As to “GAGCTCACATGGACCGGTTTTCCCGGTAATCCGTATTTGAT (site TAGCTCACTAT)”, the “recombinant UMI read abundance (log10)” value was found to be 1.66.
In the case of “GAGCTCTCATGGACCGGTTTTCCCGGTAATCCGTATTTGAC (site GAGCTCTCTGT)”, the “recombinant UMI read abundance (log10)” value was found to be 3.55.
For “GAGCTTACATGGACCGGTTTTCCCGGTAATCCGTATTTGAT (site GAGCTAACTAT)”, the “recombinant UMI read abundance (log10)” value amounted to 0.136.
The same measure for “GAGCTTACATGGACCGGTTTTCCCGGTAATCCGTATTTGAT (site GAGCTCACTAT)”: 0.0125; for “GAGCTTACATGGACCGGTTTTCCCGGTAATCCGTATTTGAT (site GAGCTGACTAT)”: 0.0138.
The same measure for “GAGCTTACATGGACCGGTTTTCCCGGTAATCCGTATTTGAT (site GAGCTTACTAT)”: 1.77; for “GAGGAGGCATGGACCGGTTTTCCCGGTAATCCGTATTTGTG (site GAGGAGGCTCA)”: 0.576; for “GAGGAGGCATGGACCGGTTTTCCCGGTAATCCGTATTTGTG (site GCGGAGGCTCA)”: 0.367.
To “GAGGAGGCATGGACCGGTTTTCCCGGTAATCCGTATTTGTG (site GGGGAGGCTCA)” belongs 0.0134.
On to “GAGGAGGCATGGACCGGTTTTCCCGGTAATCCGTATTTGTG (site GTGGAGGCTCA)”, for which the “recombinant UMI read abundance (log10)” value was 0.26.
